Patent US12384923B2, “Method of treatment of a surface” (Conopco, Inc., priority 2018, dated 2025)

Test system: Raphidocelis subcapitata
Test: Algal growth inhibition by lactam (absorbance at 680 nm of algal cultures in 6-well plates)
Assay type: cell-based
Procedure: The freshwater algae Raphidocelis subcapitata was purchased from Culture Collection of Algae and Protozoa (CCAP 278/4). The algae was cultivated in commercial Gibco BG-11 Media. A bespoke built UV exposure cabinet was used for cultivation. The UV bulbs were replaced by light bulbs (Osram L 8W I535 white). The experiments were performed in sterile 6-well microtiter plates made from polystyrene under static conditions and room temperature. The light-dark cycle was 9 h dark and 15 h light. The quantification was done spectrophotometrically in the 6-well plate by using absorbance measurements. A wavelength scan was done to measure the absorbance maximum of the algaea. […] Since the algaea tend to sediment the plate was obitally shaken to bring the cells in suspension before measuring. Measuring was performed using a Varioscan plate reader for microtiter plates.
In this experiment, the algal cultures were treated with lactam at levels of 10 μM to 200 μM as well as two control plates, one untreated, and one treated with solvent (DMSO) only. The specific levels of lactam measured were 10 μM, 20 μM, 30 μM, 40 μM, 50 μM, 100 μM, 150 μM, 200 μM would equate to levels of from 2 ppm (10 μM) to 40 ppm (200 μM), and to wt. % of 0.0002 wt. % (10 μM) to 0.004 wt. % (200 μM). The lactam was provided in a DMSO solvent to the plates. The rate of growth of the algal culture was measured after 12 days by absorbance value.
In this experiment, the algal cultures were treated with lactam at levels of 0.01 μM to 10 μM as well as two control plates, one untreated, and one treated with solvent (DMSO) only. The specific levels of lactam measured were 0.01 μM, 0.1 μM, 1 μM, 10 μM, this would equate to levels of from 0.002 ppm also defined as 2 ppb (0.01 μM) to 2 ppm (10 μM), and to wt. % of 0.0000002 wt. % (0.01 μM) to 0.0002 wt. % (10 μM). The lactam was provided in a DMSO solvent to the plates. The rate of growth of the algal culture was measured after 6 days by absorbance value.

Structure (SMILES): C=C1NC(=O)C=C1c1ccc(Cl)cc1 [4-(4-chlorophenyl)-5-methylene-pyrrol-2-one]
- Absorbance (680 nm) (Example 2, lactam 10 μM, after 12 days): 0.1
- Absorbance (680 nm) (Example 2, lactam 20 μM, after 12 days): 0.1
- Absorbance (680 nm) (Example 2, lactam 30 μM, after 12 days): 0.1
- Absorbance (680 nm) (Example 2, lactam 40 μM, after 12 days): 0.1
- Absorbance (680 nm) (Example 2, lactam 50 μM, after 12 days): 0.1
- Absorbance (680 nm) (Example 2, lactam 100 μM, after 12 days): 0.1
- Absorbance (680 nm) (Example 2, lactam 150 μM, after 12 days): 0.1
- Absorbance (680 nm) (Example 2, lactam 200 μM, after 12 days): 0.1
- algal growth inhibition (in words) (Example 2, lactam level of 10 μM (0.0002 wt. %) and above, 12 days): very effective algal growth inhibition
- Absorbance (680 nm) (Example 3, lactam 0.01 μM, after 6 days): 0.8
- Absorbance (680 nm) (Example 3, lactam 0.1 μM, after 6 days): 0.9
- algal growth inhibition (in words) (Example 3, lactam 1 μM, 6 days): no algal growth inhibition was seen
- Absorbance (680 nm) (Example 3, lactam 1 μM, after 6 days): 0.9
- Absorbance (680 nm) (Example 3, lactam 10 μM, after 6 days): 0.1
- algal growth inhibition (in words) (Example 3, lactam amount even lower than 1 μM (0.1 μM, 0.01 μM), 6 days): no algal growth inhibition was seen
- algal growth inhibition (in words) (Example 3, lactam level of 10 μM (0.0002 wt. %) and above, 6 days): very effective algal growth inhibition
